Measured values: patent publication US20160271145A1, “METHOD FOR ENLARGING THE PARTICLE SIZE OF CRYSTALLINE MICROPARTICLES OF ACTIVE SUBSTANCE” (Jesalis Pharma GmbH, priority 2012, published 2016)

Key:
[1] = solubility of the active substance in the solvent-antisolvent (acetone-water) mixture of the first suspension; format: physicochemical; settings: acetone content reduced to 42% by addition of water
Text: Solubilities of the active substance in the solvent-antisolvent mixture of the first suspension of 0.001-0.5 wt. % are suitable for carrying out the method according to the invention. Solubilites of 0.01-0.2 wt. %, in particular 0.02-0.2 wt. % are preferred. By solubility is meant, within the framework of the invention, the usual solubility known to a person skilled in the art, namely the solubility of a substance in thermodynamic equilibrium at room temperature in the solvent-antisolvent mixture. The solubilities are not relative to volume, i.e., they specify the solubility of the active substance in the total volume of the liquid phase of the suspension. It is clear from the stated solubilities that microparticles of active substance are present throughout the method.

[2] = particle size (d50) and span by laser diffraction, Mastersizer E; format: physicochemical; settings: for d50 value of the particle size distribution (first d50): acetone:water 1:1
Text: The particle size distribution and the diameters of the particles within the framework of the invention are relative to volume. dx means that x percent by volume (vol. %) of the particles have a diameter which is smaller than the stated value. With a d50 value of 1 μm therefore 50 vol. % of the particles have a diameter smaller than 1 μm (micrometre). If d10 or […] is 1 μm, 10 or 90 vol. %, respectively, of the particles have a diameter smaller than 1 μm. The d50 value is also called average particle size or average particle diameter.
Within the framework of the invention, the average particle size (d50 values) and the particle size distribution were measured by means of laser diffraction, which provides a distribution of the particle sizes. A Mastersizer E (Malvern Instruments) was used. 5 mg solid is dispersed for 20 min in 5 ml 0.1% aqueous sodium dodecyl sulphate solution using ultrasound (2 mm sonotrode, sonicator UPS 200, Dr. Hielscher GmbH, 30% amplitude) and placed in the measurement cell of the Mastersizer E, an optical concentration of 18% is set and measurement is carried out (Fraunhofer evaluation). The span was calculated from the d10, d50 and d90 values ((d90 −d10);d50 ).

[3] = habit of the particles evaluated on a microscope image (ratio of largest to smallest size); format: physicochemical
Description: The predominantly spherical shape manifests itself in that in this preferred embodiment the ratio of the largest to the smallest size of the individual particles is on average ≦2. This ratio is determined by measurement on a microscope image of the particles, by determining the ratio of the largest to the smallest size of each individual particle for at least 50 randomly selected particles and then ascertaining the average over the at least 50 particles. Preferably, the ratio of the largest to the smallest size of the individual particles is on average ≦1.6.
Immediately after the end of the stirring time, the batch is filtered using a nutsch filter with a negative pressure of 100 mbar on the filtrate side and washed with 1.0 l water. The moist filter cake has a mass of approx. 1100 g and is transferred into a 3-l container, topped up to 2160 g with water and redispersed with the Ultra Turrax T50 (|KA) at 12,000 1/min for 10 min. After this, the third d50 value is determined to be 1.28 μm from this second suspension. The span value of the particles is 1.28. The habit is evaluated microscopically as stated above (light microscope image). Habit of the particles: spherical; ratio of the largest to the smallest size of the individual particles on average=1.48. The second suspension is then spray-dried and the particles of fluticasone propionate are obtained.

[4] = granulometric analysis and span by laser diffraction (Sympatec, RODOS), reference test according to DE 102008037025 A1; format: physicochemical; settings: Comparison example, spray-dried, dispersing pressure 5 bar
Description: A 100-ml stirred vessel with blade stirrer is charged with 160 g of Y-stabilized zirconium oxide spheres with a diameter of 0.5 mm plus 30 ml of water. A solution of 0.6 g fluticasone propionate in 10 ml acetone is added to these, with stirring. After stirring for 5 min, a solution of 1.8 g fluticasone in 30 ml acetone and in the same ratio 90 ml water are added dropwise within 10 min, with stirring at 1300 rev/min. Simultaneously, product suspension is drawn off, with approximately constant filling level. Addition and product withdrawal can also take place quasicontinuously in smaller portions without any adverse effect on the result, if the above time frame is maintained. After addition, to complete the yield rinsing is carried out with approx. 60 ml water. Alternatively, the suspension in the crystallizer can be left as starting suspension for the subsequent batch. Altogether, 180 g of suspension with a solids content of 13 mg per ml is obtained. The suspension is then spray-dried Granulometric analysis and span determination were effected by means of laser diffraction (Sympatec Helps, RODOS dispersing system, dispersing pressure 5 bar).

[5] = microparticles by the method of DE 102008037025 A1, as stated in the background; cited from earlier work
[6] = Example 2, mixture of the second suspensions of the preceding and subsequent batch
[7] = Example 1, light microscope image

solubility of fluticasone propionate [1]: 0.032 wt. %
second d50 ([2]; Example 1, after 4.5 h stirring, 42% acetone): 1.12 μm
span value of the particles ([2]; Example 1, second suspension): 1.28
third d50 value ([2]; Example 1, second suspension after further 17 h stirring, filtration and redispersing in water): 1.28 μm
d50 value of the particle size distribution (first d50) ([2]; Example 1, starting suspension): 0.98 μm
d50 value [2, 6]: 1.28 μm
span value of the distribution [2, 6]: 1.28
second d50 value ([2]; Example 2, preceding batch, after 4.0 h stirring, 42% acetone): 1.12 μm
span value of the distribution ([2]; Example 2, preceding batch, second suspension): 1.29
third d50 value ([2]; Example 2, preceding batch, second suspension after further 13 h stirring): 1.24 μm
d50 value of the particle size distribution (first d50) ([2]; Example 2, preceding batch, starting suspension): 0.99 μm
intermediate d50 value ([2]; Example 2, subsequent batch, after 3.5 h stirring, 42% acetone): 1.09 μm
span value of the distribution ([2]; Example 2, subsequent batch, second suspension): 1.24
third d50 value ([2]; Example 2, subsequent batch, second suspension, stirring time increased to 18 h): 1.30 μm
d50 value of the particle size distribution (first d50) ([2]; Example 2, subsequent batch, starting suspension): 0.97 μm
habit of the particles [3, 7]: spherical
ratio of the largest to the smallest size of the individual particles on average [3, 7]: 1.48
habit of the particles ([3]; Example 2, subsequent batch): spherical
ratio of the largest to the smallest size of the individual particles on average ([3]; Example 2, subsequent batch): 1.45
d50 [4]: 1.47 μm
span [4]: 1.78
Structure (SMILES): CCC(=O)O[C@]1(C(=O)SCF)[C@H](C)C[C@H]2[C@@H]3C[C@H](F)C4=CC(=O)C=C[C@]4(C)[C@@]3(F)[C@@H](O)C[C@@]21C [fluticasone propionate]
d50 values [5]: 1-2 μm
span values [5]: ≥ 1.7
